# Source: patent US6573041B2, “Neuronal cell model and methods of use thereof” (priority 2000, dated 2003)
# Test system: HSV-2 strain 333 quiescently infected ND-PC12 (QIF-PC12) cell cultures
# Test: Induction of HSV-2 from QIF-PC12 cell cultures; virus production by direct plaque assay of supernatants on Vero cells
# Type: cell-based
# Conditions: for cultures activating virus in response to forskolin: Vero cocultivation day 12 p.i.
# Method: For morphologic differentiation, PC12 cells were maintained in RPMI 1640 supplemented 0.1% bovine serum albumin, fraction V (BSA) and 50 ng/ml of 2.5S mouse nerve growth nerve factor (NGF) (Becton Dickinson) (maintenance media) throughout the studies, unless indicated, beginning on the day of plating. PC12 were plated, following two rinses with RPMI 1640 containing 0.1% BSA and dissociation by passage through a 22-gauge needle, in 12-well tissue culture dishes (Bector Dickinson Labware, Franklin Lakes, N.J., USA) coated with rat tail collagen type 1 (Bector Dickinson) at 1.1×10^5 cells/well in maintenance media. Collagen was applied as recommended by the supplier. Following 4 days of differentiation in maintenance media, cultures were maintained in RPMI 1640 supplemented with 10% horse serum (heat-inactivated) and 5% FBS, and 50 ng/ml NGF for 2 days. The following day cultures received maintenance media supplemented with 100 μM acycloguanosine (ACV) when indicated, purchased from Sigma (St. Louis, Mo., USA). Morphologic differentiation was confirmed by microscopic visualization of dendritic processes. Media was changed every 2 to 3 days unless indicated.
# ND-PC12 cells were infected in a volume of 0.4 ml/well in 12-well plates without agitation at the indicated multiplicity of infection (MOI) overnight at 37° C. When used, ACV was maintained in the medium from 1 day prior to infection 8 days post-infection (p.i.). After ACV withdrawal, a quiescent state (i.e., free of detectable infectious virus in culture supernatants) was maintained for at least 7 days prior to induction. At the indicated times, Vero cells were trypsinized, washed twice with RPMI and introduced into the QIF-PC12 cell cultures at a ratio of 1:1 in maintenance media.
# HSV QIF-PC12 cells, that were free of detectable infectious virus, were subjected to heat stress (43° C. for 3 h in an incubator), or maintenance media supplemented with or without 50 μM forskolin (Sigma) as previously described (Danaher et al, 1999a,b). Virus production was determined using 25% volume of supernatants from infected PC12 cultures in a direct plaque assay (DPA) on monolayers of Vero cells as previously described (Miller and Smith, 1991). Cultures were subsequently replenished with fresh maintenance media.
# Based on these findings, forskolin and HS induced HSV-2 reactivation from QIF-PC12 cell cultures that were cocultivated with Vero cells was analyzed in more detail. QIF-PC12 cell cultures were established with strain 333 at MOI of 10 as described in the Materials and methods using transient ACV treatment. Cultures were cocultivated with Vero cells at a ratio of 1:1 three days before induction with forskolin or HS (day 15 p.i.). Virus production was monitored from day 10 through 23 p.i. Prior to induction, HSV-2 was detected infrequently (2.8%; 1/36) in cocultivated cultures. The 35 cultures that were not shedding virus were used in induction assays. Following induction treatment (FIG. 1), virus was detected in 90 to 100% of HS and forskolin induced cocultivated cultures, and 8.3% (1/12) of mock-induced cocultivated cultures.
# To assess this, QIF-PC12 cell cultures were established with HSV-2 as described above. Cultures were cocultivated with Vero cells at a ratio of 1:1 within 10 days of AC withdrawal. Induction was performed with forskolin on day 30 p.i. Cultures were monitored for virus production using culture supernatants. Over the 3 week period between ACV withdrawal and induction, 71% (17/24) of the HSV-2 infected culture maintained quiescence. HSV-2 was produced from 100% (8/8) of forskolin induced cultures and 0% (0/9) of mock induced cultures by 8 days post-induction (data not shown).
# Next, it was determined whether the efficiency of HSV-2 activation from quiescence was MOI-dependent. QIF-PC12 cell cultures were established with HSV-2 strain 333 at MOIs of 3 and 30 and cocultivated with Vero cells at a ratio of 1:1 on day 12 p.i. as above. […]
smiles,measurement,setting,value
C=C[C@@]1(C)CC(=O)[C@]2(O)[C@@]3(C)[C@@H](O)CCC(C)(C)[C@@H]3[C@H](O)[C@H](OC(C)=O)[C@@]2(C)O1 [forskolin],cultures activating virus in response to forskolin,"50 μM forskolin day 15 p.i., MOI of 3, established with ACV, 9/11 by day 7",82%
same,cultures activating virus in response to forskolin,"50 μM forskolin day 15 p.i., MOI of 30, established with ACV, 12/12 by day 6",100%
same,cultures producing HSV-2 after forskolin induction,"established without ACV, MOI of 3, 50 μM forskolin day 15 p.i., by day 6 post-induction, 10/11 cultures",91%
same,cultures from which virus was recovered after forskolin induction,"established without ACV, MOI of 3, previously mock induced non-productive cultures, forskolin induced on day 30 p.i., 4/4 cultures",100%
same,forskolin induced reactivation (cultures),"established without ACV, MOI of 30, 50 μM forskolin day 15 p.i., 9/10 cultures",90%
same,cultures producing HSV-2 after forskolin induction,"forskolin on day 30 p.i., established with ACV, Vero cocultivation, by 8 days post-induction, 8/8 cultures",100%
